Measurements: ChEMBL document CHEMBL1122063, “Renin inhibitors. Substitution of the leucyl residues of Leu-Leu-Val-Phe-OCH3 with 3-amino-2-hydroxy-5-methylhexanoic acid” (J Med Chem, 1982)
pKi: −log10 of the molar value.

target: T1, Renin (Homo sapiens, UniProt P00797); assay: Competitive inhibition of renin from human amniotic […]
T1 sequence (P00797 whole entry): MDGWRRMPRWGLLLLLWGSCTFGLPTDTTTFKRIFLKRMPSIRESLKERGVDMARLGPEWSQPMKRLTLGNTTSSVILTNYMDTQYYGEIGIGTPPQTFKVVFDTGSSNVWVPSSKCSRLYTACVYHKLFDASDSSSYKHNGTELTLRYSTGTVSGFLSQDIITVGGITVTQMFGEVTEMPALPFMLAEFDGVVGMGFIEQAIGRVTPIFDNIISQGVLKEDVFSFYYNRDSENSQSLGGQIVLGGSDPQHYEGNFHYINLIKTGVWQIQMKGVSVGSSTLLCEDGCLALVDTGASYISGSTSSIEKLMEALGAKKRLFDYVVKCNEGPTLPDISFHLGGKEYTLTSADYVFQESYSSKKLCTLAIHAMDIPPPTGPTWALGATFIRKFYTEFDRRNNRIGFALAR

Structure (SMILES)	pKi
COC(=O)[C@H](Cc1ccccc1)NC(=O)[C@@H](NC(=O)[C@@H](CC(C)C)NC(=O)[C@H](O)[C@@H](N)CC(C)C)C(C)C	2.82
COC(=O)[C@H](Cc1ccccc1)NC(=O)[C@@H](NC(=O)[C@H](O)[C@@H](N)CC(C)C)C(C)C	3.00
COC(=O)[C@H](Cc1ccccc1)NC(=O)[C@@H](NC(=O)[C@@H](O)[C@@H](N)CC(C)C)C(C)C	2.61

Now those with a higher pKi, led by results:

pKi	Structure (SMILES)
3.02	COC(=O)[C@H](Cc1ccccc1)NC(=O)[C@@H](NC(=O)[C@H](CC(C)C)NC(=O)[C@@H](O)[C@@H](N)CC(C)C)C(C)C
3.36	COC(=O)[C@H](Cc1ccccc1)NC(=O)[C@@H](NC(=O)[C@H](O)[C@@H](N)CC(C)CC(=O)[C@@H](N)CC(C)C)C(C)C (stereo partly specified)
3.28	COC(=O)[C@H](Cc1ccccc1)NC(=O)[C@@H](NC(=O)[C@@H](O)[C@@H](N)CC(C)CC(=O)[C@@H](N)CC(C)C)C(C)C (stereo partly specified)
